In US20030104507A1, “Method for detection of ATP” (priority 2001, published 2003):

Legend:
LucPpe2m146 = experiment: Stability of reagent composition with LucPpe2m146 and detergent (RT, pH 7.0); assay type: biochemical, Photuris pennsylvanica
Description: (§1) The detergents used for inhibition of endogenous ATPase activity in a sample also affect activity of luciferase. […] It is ultimately the extended stability of a reagent composition, comprising an ATPase inhibitor and a luciferase enzyme, which provides a composition useful for measuring ATP, in a sample or samples, over an extended period of time.
(§2) In this experiment, the stability of a reagent composition comprising wild type LucPpy was compared to the stability of a reagent composition comprising LucPpe2m146 at about 23° C. (room temperature). The various reagent compositions had varying detergent concentrations.
(§3) Two solutions were created as listed below. One contained the luciferase, luciferin, MgSO4, and buffer (reagent composition). The other solution contained media plus ATP (media solution).
(§4) 50 μg/ml enzyme (LucPpy is Promega catalog #E170A)
(§5) Detergent (at various concentrations, see table below)
(§6) For each reagent composition, all ingredients except the luciferase enzyme were assembled; the enzyme was then added immediately before the first luminescence reading was taken. Immediately after addition of enzyme to each reagent composition and for various timepoints thereafter, 100 μl aliquots of the reagent composition were added to wells of a 96-well microtitre luminometer plate in triplicate. To these were added 100 μl Media Solution containing the ATP. Luminescence was then immediately read on a Dynex MLX microtitreplate luminometer, 0.5 second reads per well. The average relative light unit values as well as the reaction half lives are listed below in Table I and the percent of original luminescence remaining at each timepoint is listed in Table J below. The timepoint at the top of the column indicates the time at which the first rlu measurement for the samples in that column was read. […] Times listed in Table I are the same for Table J. The values for sulfobetaine and for CTAB were generated on different days, they are presented with the control values generated in the same experiment.

LucPpy = molecular target: T1, LucPpy (Photinus pyralis, UniProt P08659); experiment: Stability of reagent composition with LucPpy and detergent (RT, pH 7.0); assay type: biochemical; details: for Average Relative Light Units / Percent of Luminescence Remaining: LucPpy
T1 construct: purchased Promega E170A
Description: as §1, §2, §3, §4, §5, §6

CCCCCCCCCCCC[N+](C)(C)CCCS(=O)(=O)[O-] [Sulfobetaine 3-10, N-Dodecyl-N,N-dimethyl-3-ammonio-1-propanesulfonate]
Average Relative Light Units (LucPpe2m146; LucPpe2m146, 0.1%, 0.75 min (head r48)): 16648.3 rlu
Percent of Luminescence Remaining (LucPpe2m146; LucPpe2m146, 0.1%, 0.75 min (times of Table I r48)): 100.00%
Average Relative Light Units (LucPpe2m146; LucPpe2m146, 0.1%, 30 min (head r48)): 17003.0 rlu
Percent of Luminescence Remaining (LucPpe2m146; LucPpe2m146, 0.1%, 30 min (times of Table I r48)): 102.1%
Average Relative Light Units (LucPpe2m146; LucPpe2m146, 0.1%, 66 min (head r48)): 17849.8 rlu
Percent of Luminescence Remaining (LucPpe2m146; LucPpe2m146, 0.1%, 66 min (times of Table I r48)): 107.2%
Average Relative Light Units (LucPpe2m146; LucPpe2m146, 0.1%, 123 min (head r48)): 16610.13 rlu
Percent of Luminescence Remaining (LucPpe2m146; LucPpe2m146, 0.1%, 123 min (times of Table I r48)): 99.8%
Average Relative Light Units (LucPpe2m146; LucPpe2m146, 0.1%, 180 min (head r48)): 17115.63 rlu
Percent of Luminescence Remaining (LucPpe2m146; LucPpe2m146, 0.1%, 180 min (times of Table I r48)): 102.8%
Average Relative Light Units (LucPpe2m146; LucPpe2m146, 0.1%, 238 min (head r48)): 18131.37 rlu
Percent of Luminescence Remaining (LucPpe2m146; LucPpe2m146, 0.1%, 238 min (times of Table I r48)): 108.9%
Average Relative Light Units (LucPpe2m146; LucPpe2m146, 0.5%, 0.75 min (head r48)): 13447.0 rlu
Percent of Luminescence Remaining (LucPpe2m146; LucPpe2m146, 0.5%, 0.75 min (times of Table I r48)): 100.00%
Average Relative Light Units (LucPpe2m146; LucPpe2m146, 0.5%, 30 min (head r48)): 13597.97 rlu
Percent of Luminescence Remaining (LucPpe2m146; LucPpe2m146, 0.5%, 30 min (times of Table I r48)): 101.1%
Average Relative Light Units (LucPpe2m146; LucPpe2m146, 0.5%, 66 min (head r48)): 14186.93 rlu
Percent of Luminescence Remaining (LucPpe2m146; LucPpe2m146, 0.5%, 66 min (times of Table I r48)): 105.5%
Average Relative Light Units (LucPpe2m146; LucPpe2m146, 0.5%, 123 min (head r48)): 12982.20 rlu
Percent of Luminescence Remaining (LucPpe2m146; LucPpe2m146, 0.5%, 123 min (times of Table I r48)): 96.5%
Average Relative Light Units (LucPpe2m146; LucPpe2m146, 0.5%, 180 min (head r48)): 14348.90 rlu
Percent of Luminescence Remaining (LucPpe2m146; LucPpe2m146, 0.5%, 180 min (times of Table I r48)): 106.7%
Average Relative Light Units (LucPpe2m146; LucPpe2m146, 0.5%, 238 min (head r48)): 13958.2 rlu
Percent of Luminescence Remaining (LucPpe2m146; LucPpe2m146, 0.5%, 238 min (times of Table I r48)): 103.8%
Average Relative Light Units (LucPpe2m146; LucPpe2m146, 1.0%, 0.75 min (head r48)): 16897.5 rlu
Percent of Luminescence Remaining (LucPpe2m146; LucPpe2m146, 1.0%, 0.75 min (times of Table I r48)): 100.00%
Average Relative Light Units (LucPpe2m146; LucPpe2m146, 1.0%, 30 min (head r48)): 16754.97 rlu
Percent of Luminescence Remaining (LucPpe2m146; LucPpe2m146, 1.0%, 30 min (times of Table I r48)): 102.0%
Average Relative Light Units (LucPpe2m146; LucPpe2m146, 1.0%, 66 min (head r48)): 7036.0 rlu
Percent of Luminescence Remaining (LucPpe2m146; LucPpe2m146, 1.0%, 66 min (times of Table I r48)): 106.0%
Average Relative Light Units (LucPpe2m146; LucPpe2m146, 1.0%, 123 min (head r48)): 6653.67 rlu
Percent of Luminescence Remaining (LucPpe2m146; LucPpe2m146, 1.0%, 123 min (times of Table I r48)): 100.3%
Average Relative Light Units (LucPpe2m146; LucPpe2m146, 1.0%, 180 min (head r48)): 7358.44 rlu
Percent of Luminescence Remaining (LucPpe2m146; LucPpe2m146, 1.0%, 180 min (times of Table I r48)): 110.9%
Average Relative Light Units (LucPpe2m146; LucPpe2m146, 1.0%, 238 min (head r48)): 6948.05 rlu
Percent of Luminescence Remaining (LucPpe2m146; LucPpe2m146, 1.0%, 238 min (times of Table I r48)): 104.7%
Half-life of Luminescence Activity (LucPpy; Common firefly luciferase (P. pyralis), conc. 0.500): no activity
Average Relative Light Units (LucPpy; 0.1%, 0.75 min (head r12)): 3291.41 rlu
Percent of Luminescence Remaining (LucPpy; 0.1%, 0.75 min (times of Table I r12)): 100.00%
Average Relative Light Units (LucPpy; 0.1%, 7.5 min (head r12)): 3178.07 rlu
Percent of Luminescence Remaining (LucPpy; 0.1%, 7.5 min (times of Table I r12)): 95.8%
Average Relative Light Units (LucPpy; 0.1%, 20.5 min (head r12)): 3262.17 rlu
Percent of Luminescence Remaining (LucPpy; 0.1%, 20.5 min (times of Table I r12)): 99.1%
Average Relative Light Units (LucPpy; 0.1%, 59 min (head r12)): 3074.49 rlu
Percent of Luminescence Remaining (LucPpy; 0.1%, 59 min (times of Table I r12)): 93.4%
Average Relative Light Units (LucPpy; 0.1%, 90 min (head r12)): 3066.29 rlu
Percent of Luminescence Remaining (LucPpy; 0.1%, 90 min (times of Table I r12)): 93. %
Average Relative Light Units (LucPpy; 0.5%, 0.75 min (head r12)): 737.788 rlu
Percent of Luminescence Remaining (LucPpy; 0.5%, 0.75 min (times of Table I r12)): 100.00%
Average Relative Light Units (LucPpy; 0.5%, 7.5 min (head r12)): 0.084 rlu
Average Relative Light Units (LucPpy; 0.5%, 20.5 min (head r12)): 0.037 rlu
Average Relative Light Units (LucPpy; 1.0%, 0.75 min (head r12)): 0.024 rlu
Average Relative Light Units (LucPpy; 1.0%, 7.5 min (head r12)): 0.000 rlu
